The subject of the first experiment is HBV. The experiment in a line: HepAD38 antiviral assay: reduction of viral product accumulation (virion DNA by qPCR, HBsAg/HBeAg by ELISA). The experiment is classed as cell-based. The settings on record: Hepatitis B virus, 120 h; HepAD38 cells; 50% reduction of viral product accumulation vs no drug controls; five days after compound addition; class symbols. On the procedure: Methods: HepAD38 cells are maintained as previously reported (Ladner et al, Antimicrob. Agents Chemother. 1997, […], 1715). Briefly, cells are passaged upon attaining confluency in DMEM/F12 media in the presence of 10% FBS, Penn/Strep, 250 μg/mL G418, and 1 μg/ml tetracycline. Novel compounds are screened by first washing cells three times with PBS to remove tetracycline, and plating in 96 well plates at 35,000 cells/well. Compounds dissolved in DMSO are then diluted 1:200 into wells containing cells. Five days after compound addition, material is harvested for analysis. For an extended 8 day analysis, cells are plated and treated as described above, but media and compound are refreshed on d2 and d5 post initial treatment.
On harvest day, virion DNA is obtained by lysing with Sidestep Lysis and Stabilization Buffer and then quantified via quantitative real time PCR. Commercially available ELISA kits are used to quantitate the viral proteins HBsAg (Alpco) or HbeAg (US Biological) by following the manufacturer's recommended protocol after diluting samples to match the linear range of their respective assays. Irrespective of readout, compound concentrations that reduce viral product accumulation in the cell lysates or supernatants by 50% relative to no drug controls (EC50) are reported; EC50 ranges are as follows: A<0.1 μM; B 0.1-1 μM; C>1 μM.
`COC(=O)OC[C@]1(CC2=C(c3ccn(C(F)F)n3)[C@H](c3ccc(F)cc3Cl)N=C(c3nccs3)N2)COC(=O)N1` [Example 96] had a half-maximal effective concentration (EC50) of 100 to 1000 nM.

`CC(=O)OC[C@]1(CC2=C(c3ccn(C(F)F)n3)[C@H](c3ccc(F)cc3Cl)N=C(c3nccs3)N2)COC(=O)N1` [Example 97] registered a concentration for a half-maximal effect (EC50) of 100 to 1000 nM. The same measure, in the same setting: the value for `O=C1N[C@@](/C=N/Oc2ccccc2)(CC2=C(c3ccn(C(F)F)n3)[C@H](c3ccc(F)cc3Cl)N=C(c3nccs3)N2)CO1` [Example 102] was 100 to 1000 nM. For the compound `OCC(O)(CO)CC1=C(c2ccn(C(F)F)n2)[C@H](c2ccc(F)cc2Cl)N=C(c2nccs2)N1` [Example 111], the concentration for a half-maximal effect (EC50) was less than 100 nM. Still for that read-out and setting: with `[N-]=[N+]=NC[C@@]1(O)CC2=C(c3ccn(C(F)F)n3)[C@H](c3ccc(F)cc3Cl)N=C(c3nccs3)N2C1` [Example 113] the figure was 100 to 1000 nM; with `[N-]=[N+]=NC[C@]1(O)CC2=C(c3ccn(C(F)F)n3)[C@H](c3ccc(F)cc3Cl)N=C(c3nccs3)N2C1` [Example 114], 100 to 1000 nM. `OC[C@@]1(O)CC2=C(c3ccn(C(F)F)n3)[C@H](c3ccc(F)cc3Cl)N=C(c3nccs3)N2C1` [Example 122] came in with a concentration giving a half-maximal response (EC50) of 100 to 1000 nM. Same read-out and setting: the value for `OCC(F)(CO)CC1=C(c2cnn(C(F)F)c2)[C@H](c2ccc(F)cc2Cl)N=C(c2nccs2)N1` [Example 137] was 100 to 1000 nM. The same measure, in the same setting: with `COCC(F)(COC)CC1=C(c2cnn(C(F)F)c2)[C@H](c2ccc(F)cc2Cl)N=C(c2nccs2)N1` [Example 138] the figure was 100 to 1000 nM; with `C[C@H]1OC[C@@](F)(CC2=C(c3cnn(C(F)F)c3)[C@H](c3ccc(F)cc3Cl)N=C(c3nccs3)N2)CO1` [Example 140], 100 to 1000 nM; with `OC[C@]1(F)CC2=C(c3cnn(C(F)F)c3)[C@H](c3ccc(F)cc3Cl)N=C(c3nccs3)N2C1` [Example 148], 100 to 1000 nM.

The same experiment, now with this note: Hepatitis B virus, 120 h; HepAD38 cells; 50% reduction of viral product accumulation vs no drug controls; five days after compound addition; given as numeric bound.
In the case of `CNC(=O)OC[C@]1(CC2=C(c3ccn(C(F)F)n3)[C@H](c3ccc(F)cc3Cl)N=C(c3nccs3)N2)COC(=O)N1` [Example 98], the EC50 was more than 400 nM. Still for that read-out and setting: the value for `COC[C@]1(CC2=C(c3ccn(C(F)F)n3)[C@H](c3ccc(F)cc3Cl)N=C(c3nccs3)N2)COC(=O)N1` [Example 99] was more than 400 nM.

The compound `C=CCOC[C@]1(CC2=C(c3ccn(C(F)F)n3)[C@H](c3ccc(F)cc3Cl)N=C(c3nccs3)N2)COC(=O)N1` [Example 100] showed a 50% effective concentration (EC50) of more than 400 nM. On the same count and under the same terms, the value for `CO/N=C/[C@]1(CC2=C(c3ccn(C(F)F)n3)[C@H](c3ccc(F)cc3Cl)N=C(c3nccs3)N2)COC(=O)N1` [Example 101] was more than 400 nM; that for `O=C1N[C@](CC2=C(c3ccn(C(F)F)n3)[C@H](c3ccc(F)cc3Cl)N=C(c3nccs3)N2)(C(=O)O)CO1` [Example 103] was more than 400 nM; that for `O=C1N[C@@](CC2=C(c3ccn(C(F)F)n3)[C@H](c3ccc(F)cc3Cl)N=C(c3nccs3)N2)(C(=O)O)CO1` [Example 104] was more than 400 nM. The same measure, in the same setting: the value for `COC(=O)/C=C/[C@]1(CC2=C(c3ccn(C(F)F)n3)[C@H](c3ccc(F)cc3Cl)N=C(c3nccs3)N2)COC(=O)N1` [Example 105] was more than 400 nM. The same measure, in the same setting: the value for `COC(=O)CC[C@]1(CC2=C(c3ccn(C(F)F)n3)[C@H](c3ccc(F)cc3Cl)N=C(c3nccs3)N2)COC(=O)N1` [Example 106] was more than 400 nM; that for `O=C(O)CC[C@]1(CC2=C(c3ccn(C(F)F)n3)[C@H](c3ccc(F)cc3Cl)N=C(c3nccs3)N2)COC(=O)N1` [Example 107] was more than 400 nM. `CC(=O)[C@]1(CC2=C(c3ccn(C(F)F)n3)[C@H](c3ccc(F)cc3Cl)N=C(c3nccs3)N2)COC(=O)N1` [Example 108]: the concentration giving a half-maximal response (EC50) is more than 400 nM. `CC(C)(O)[C@]1(CC2=C(c3ccn(C(F)F)n3)[C@H](c3ccc(F)cc3Cl)N=C(c3nccs3)N2)COC(=O)N1` [Example 109] showed a concentration for a half-maximal effect (EC50) of more than 400 nM.

Compound `CC(O)[C@]1(CC2=C(c3ccn(C(F)F)n3)[C@H](c3ccc(F)cc3Cl)N=C(c3nccs3)N2)COC(=O)N1` (some centres unmarked) [Example 110] showed a concentration giving a half-maximal response (EC50) of more than 400 nM. On the same count and under the same terms, the value for `COC(=O)C(O)(CO)CC1=C(c2ccn(C(F)F)n2)[C@H](c2ccc(F)cc2Cl)N=C(c2nccs2)N1` (some centres unmarked) [Example 112] was more than 400 nM; that for `CS(=O)(=O)NC[C@@]1(O)CC2=C(c3ccn(C(F)F)n3)[C@H](c3ccc(F)cc3Cl)N=C(c3nccs3)N2C1` [Example 115] was more than 400 nM; that for `CC(=O)NC[C@@]1(O)CC2=C(c3ccn(C(F)F)n3)[C@H](c3ccc(F)cc3Cl)N=C(c3nccs3)N2C1` [Example 116] was more than 400 nM. On the same count and under the same terms, with `COC(=O)NC[C@@]1(O)CC2=C(c3ccn(C(F)F)n3)[C@H](c3ccc(F)cc3Cl)N=C(c3nccs3)N2C1` [Example 117] the figure was more than 400 nM; with `CS(=O)(=O)NC[C@]1(O)CC2=C(c3ccn(C(F)F)n3)[C@H](c3ccc(F)cc3Cl)N=C(c3nccs3)N2C1` [Example 118], more than 400 nM.

Turning to `COC(=O)N[C@]1(C(C)O)CC2=C(c3ccn(C(F)F)n3)[C@H](c3ccc(F)cc3Cl)N=C(c3nccs3)N2C1` (some centres unmarked) [Example 119], the EC50 was more than 400 nM. On the same count and under the same terms, with `COC(=O)[C@@]1(O)CC2=C(c3ccn(C(F)F)n3)[C@H](c3ccc(F)cc3Cl)N=C(c3nccs3)N2C1` [Example 120] the figure was more than 400 nM. The same measure, in the same setting: the value for `COC(=O)[C@]1(O)CC2=C(c3ccn(C(F)F)n3)[C@H](c3ccc(F)cc3Cl)N=C(c3nccs3)N2C1` [Example 121] was more than 400 nM; that for `OC[C@]1(O)CC2=C(c3ccn(C(F)F)n3)[C@H](c3ccc(F)cc3Cl)N=C(c3nccs3)N2C1` [Example 123] was more than 400 nM; that for `CC(C)(C)OC(=O)NC[C@H]1CN(CC2=C(c3ccn(C(F)F)n3)[C@H](c3ccc(F)cc3Cl)N=C(c3nccs3)N2)C(=O)O1` [Example 124] was more than 400 nM. On the same count and under the same terms, with `COC(=O)NC[C@H]1CN(CC2=C(c3ccn(C(F)F)n3)[C@H](c3ccc(F)cc3Cl)N=C(c3nccs3)N2)C(=O)O1` [Example 125] the figure was more than 400 nM.

As to `CCOC(=O)NC[C@H]1CN(CC2=C(c3ccn(C(F)F)n3)[C@H](c3ccc(F)cc3Cl)N=C(c3nccs3)N2)C(=O)O1` [Example 126], the concentration for a half-maximal effect (EC50) was more than 400 nM. Still for that read-out and setting: the value for `CC(C)(C)OC(=O)NC[C@@H]1CN(CC2=C(c3ccn(C(F)F)n3)[C@H](c3ccc(F)cc3Cl)N=C(c3nccs3)N2)C(=O)O1` [Example 127] was more than 400 nM. In turn, `COC(=O)NC[C@@H]1CN(CC2=C(c3ccn(C(F)F)n3)[C@H](c3ccc(F)cc3Cl)N=C(c3nccs3)N2)C(=O)O1` [Example 128] came in with an EC50 of more than 400 nM.

On to `CCOC(=O)NC[C@@H]1CN(CC2=C(c3ccn(C(F)F)n3)[C@H](c3ccc(F)cc3Cl)N=C(c3nccs3)N2)C(=O)O1` [Example 129], for which the EC50 was more than 400 nM. Still for that read-out and setting: with `CC(C)(C)OC(=O)NC[C@H]1CCC(=O)N1CC1=C(c2ccn(C(F)F)n2)[C@H](c2ccc(F)cc2Cl)N=C(c2nccs2)N1` [Example 130] the figure was more than 400 nM; with `CC(C)(C)OC(=O)NC[C@@H]1CCC(=O)N1CC1=C(c2ccn(C(F)F)n2)[C@H](c2ccc(F)cc2Cl)N=C(c2nccs2)N1` [Example 131], more than 400 nM; with `COC(=O)NC[C@H]1CCC(=O)N1CC1=C(c2ccn(C(F)F)n2)[C@H](c2ccc(F)cc2Cl)N=C(c2nccs2)N1` [Example 132], more than 400 nM. The same measure, in the same setting: with `COC(=O)NC[C@@H]1CCC(=O)N1CC1=C(c2ccn(C(F)F)n2)[C@H](c2ccc(F)cc2Cl)N=C(c2nccs2)N1` [Example 133] the figure was more than 400 nM. On the same count and under the same terms, with `CCOC(=O)NC[C@H]1CCC(=O)N1CC1=C(c2ccn(C(F)F)n2)[C@H](c2ccc(F)cc2Cl)N=C(c2nccs2)N1` [Example 134] the figure was more than 400 nM; with `CCOC(=O)NC[C@@H]1CCC(=O)N1CC1=C(c2ccn(C(F)F)n2)[C@H](c2ccc(F)cc2Cl)N=C(c2nccs2)N1` [Example 135], more than 400 nM; with `C=CCOCC(F)(COC)CC1=C(c2cnn(C(F)F)c2)[C@H](c2ccc(F)cc2Cl)N=C(c2nccs2)N1` (some centres unmarked) [Example 136], more than 400 nM. In turn, `C[C@H]1OC[C@](F)(CC2=C(c3cnn(C(F)F)c3)[C@H](c3ccc(F)cc3Cl)N=C(c3nccs3)N2)CO1` [Example 139] returned an EC50 of more than 400 nM.

In the case of `CCC[C@H]1OC[C@](F)(CC2=C(c3cnn(C(F)F)c3)[C@H](c3ccc(F)cc3Cl)N=C(c3nccs3)N2)CO1` [Example 141], the concentration for a half-maximal effect (EC50) was more than 400 nM.

In the case of `CCC[C@H]1OC[C@@](F)(CC2=C(c3cnn(C(F)F)c3)[C@H](c3ccc(F)cc3Cl)N=C(c3nccs3)N2)CO1` [Example 142], the concentration giving a half-maximal response (EC50) was more than 400 nM.

As for `Fc1ccc([C@@H]2N=C(c3nccs3)NC(C[C@]3(F)CO[C@@H](c4ccccc4)OC3)=C2c2cnn(C(F)F)c2)c(Cl)c1` [Example 143], the concentration for a half-maximal effect (EC50) is more than 400 nM. The same measure, in the same setting: the value for `Fc1ccc([C@@H]2N=C(c3nccs3)NC(C[C@]3(F)CO[C@H](c4ccccc4)OC3)=C2c2cnn(C(F)F)c2)c(Cl)c1` [Example 144] was more than 400 nM; that for `O=S(=O)(CC1=C(c2cnn(C(F)F)c2)[C@H](c2ccc(F)cc2Cl)N=C(c2nccs2)N1)C1CCCC1` [Example 145] was more than 400 nM; that for `O=S(=O)(CC1=C(c2cnn(C(F)F)c2)[C@H](c2ccc(F)cc2Cl)N=C(c2nccs2)N1)N1CCC(O)CC1` [Example 146] was more than 400 nM. The same measure, in the same setting: the value for `OCC(F)(F)CC1=C(c2cnn(C(F)F)c2)[C@H](c2ccc(F)cc2Cl)N=C(c2nccs2)N1` [Example 147] was more than 400 nM.

The values above are taken from patent US10723733B2, “Hepatitis B antiviral agents” (Enanta Pharmaceuticals, Inc., priority 2017, dated 2020).
